Test results from patent publication US20240366626A1, “OPHTHALMIC PREPARATION FOR MYOPIA SUPPRESSION” (TSUBOTA LABORATORY, INC., priority 2021, published 2024).
Entries after “also recorded” stand apart in the source; their conditions may differ. Where a name gives a salt, the structure may show the parent alone.

System: mouse myopia model
Assay: Mouse myopia model (−30D lens on right eye, 0D on left), eye drops for three weeks; change in refractive index and axial length measured
Type: in vivo, mice (C57BL6/J)
Details: for myopia suppressing effect (overall conclusion): mouse myopia model, eye drops for three weeks; for change in refractive index / change in axial length: −30D lens eyes vs OD lens eyes after three weeks of eye drops, bunazosin two drops once or twice per day, unoprostone two drops once per day; for change in refractive index: infrared photorefractor; for change in axial length: spectral domain OCT
Experimental: The present inventors, with a focus on the fact that certain glaucoma ophthalmic preparations are effective in suppressing myopia progression, attempted to find myopia progression suppressing effects from existing glaucoma ophthalmic preparations. In the present application, glaucoma ophthalmic preparations were administered to a mouse myopia model, and an axial length and a refractive index were measured to evaluate whether the eye drops were effective in suppressing the progression of axial myopia.
Eye drops were continuously administered for three weeks, with phosphate buffered saline (PBS) eye drops as the control group and bunazosin eye drops as the test group. Bunazosin is the main ingredient of a Detantol ophthalmic solution, and bunazosin eye drops were administered using Detantol 0.01% ophthalmic solution (manufactured by Santen Pharmaceutical Co. Ltd., 1 mL contains 0.1 mg of bunazosin hydrochloride). The number of eye drops was two drops once per day and twice a day (two drops each in the morning and evening). The refractive index and the axial length of the mouse eyeball after three weeks were measured and the amounts of change were calculated.
The refractive values were measured by using an infrared photorefractor for mice (manufactured by Prof. Schaeffel, University of Tubingen). The axial lengths were measured by using spectral domain optical coherence tomography (Envisu R4310, manufactured by Leica).
Mice similar to those in Experiment 1 were used to induce myopia. Eye drops were continually administered for three weeks, with PBS eye drops as the control group and unoprostone eye drops as the test group. Unoprostone is the main ingredient of a Rescula ophthalmic solution, and unoprostone eye drops were administered (two drops once per day, per eye) with Rescula ophthalmic solution 0.12% (Nitto Medic Co., Ltd., 1 mL contains 1.2 mg of isopropyl unoprostone). The refractive index and the axial length of the mouse eyeball after three weeks were measured and the amounts of change were calculated. The refractive index measurement and the axial length measurement were the same as in Experiment 1.

[1] = two drops once per day vs twice a day, three weeks

Compound	myopia suppressing effect (overall conclusion) (hydrochloride)	comparison of dosing frequency (once vs twice per day), axial length [1]	comparison of dosing frequency (once vs twice per day), refractive index [1]	change in refractive index	change in axial length	myopia suppressing effect (overall conclusion)
CCCC(=O)N1CCCN(c2nc(N)c3cc(OC)c(OC)cc3n2)CC1 [bunazosin, bunazosin hydrochloride]	exhibited a myopia-suppressing effect; also recorded: exhibits a myopia suppressing effect	no difference between one eye drop and two eye drops	one eye drop has a greater myopia suppressing effect than two eye drops	no significant difference between the eyes with the −30D lenses and the eyes with OD lenses	substantially no difference in the axial lengths between the two eyes	–
CCCCCCCC(=O)CC[C@@H]1[C@@H](C/C=C\CCCC(=O)OC(C)C)[C@@H](O)C[C@H]1O [unoprostone, isopropyl unoprostone]	–	–	–	both eyes became myopic and no myopia suppressing effect of the eye drops was confirmed	no significant difference in the axial lengths of the two eyes was confirmed	did not exhibit a myopia suppressing effect; also recorded: does not exhibit a myopia suppressing effect
